Measurements taken from US12583841B2, “Tetrahydropyrrolocyclic compound and application thereof” (Breakthrough Pharmaceuticals Inc., priority 2021, dated 2026).
Where two headings read alike, the source gives them in different places.

Assays:
Format in all cases: in vivo
[1] = Drug concentration in brain tissue and plasma of SD rats; conditions: male, Sprague-Dawley (SD), po, SD rat, p.o. 30 mg/kg
Description: (§1) 4 healthy SD rats aged 6-9 weeks were selected, and the other group was given the test compound at 10 mg/kg by intragastric administration. 2 animals were randomly selected at 0.5 h and 2 h after administration, respectively. Plasma and brain tissue samples were collected, and LC-MS/MS method was used for quantitative analysis of all biological samples.
as §1, with “healthy male” for “healthy”, “selected” for “selected,”, “and” for “and the other group was”, “compound” for “compound at 10 mg/kg”, “selected to be euthanized” for “selected”

[2] = Pharmacokinetic parameters in Beagle dog plasma
Description: (§2) 4 healthy male Beagle dogs were selected and randomly divided into two groups, with 2 dogs in each group. One group was given the test compound at 1 mg/kg by intravenous injection, and the other group was given the test compound at 5 mg/kg by intragastric administration. Plasma samples were collected at 0.033, 0.083, 0.25, 0.5, 1.0, 2.0, 4.0, 6.0, 8.0, and 24 h after administration for the intravenous injection group and intragastric administration group, respectively. Quantitative analysis of all biological samples was carried out by LC-MS/MS method, and the WinNonlin™ Version 6.3 (Pharsight, Mountain View, CA) pharmacokinetic software was used to calculate the relevant pharmacokinetic parameters by the non-compartmental model linear logarithmic trapezoidal method. AUC0-last represents area under the plasma concentration-time curve from time zero to the last detectable concentration time point; p.o. represents oral; i.v. represents intravenous injection; T1/2 represents half-life; CL represents clearance rate; Vd represents apparent volume of distribution; Cmax represents peak concentration; Tmax represents time to peak; F % represents oral bioavailability.

[3] = Pharmacokinetic parameters in SD rat plasma
Description: as §2, with “healthy SD rats aged 6-9 weeks” for “healthy male Beagle dogs”, “2 rats” for “2 dogs”, “at 2” for “at 1”, “at 10” for “at 5”, “at” for “at 0.033,”
as §2, with “male SD rats aged 6-9 weeks” for “male Beagle dogs”, “2 rats” for “2 dogs”, “at 2” for “at 1”, “at 10” for “at 5”, “at” for “at 0.033,”

[4] = male, Sprague-Dawley (SD), plasma, iv, i.v. 2 mg/kg
[5] = male, Sprague-Dawley (SD), plasma, po, p.o. 10 mg/kg

Structure (SMILES): COc1ccc(-n2nccn2)c(C(=O)N2C(c3nc4ccc(OC)cc4[nH]3)CC3CC32)c1 (stereo not shown) [Compound 8]
- Kp at 0.5 h ([1]; brain / plasma, 0.5 h, read-out: Brain-to-blood ratio): 0.25
- Kp at 2 h ([1]; brain / plasma, 2 h, read-out: Brain-to-blood ratio): 0.19
- concentration at 0.5 h ([1]; brain, 0.5 h, read-out: Drug concentration in brain): 1.39 µM
- concentration at 2 h ([1]; brain, 2 h, read-out: Drug concentration in brain): 212 nM
- concentration at 0.5 h ([1]; plasma, 0.5 h, read-out: Drug concentration in plasma): 5.6 µM
- concentration at 2 h ([1]; plasma, 2 h, read-out: Drug concentration in plasma): 1100 nM
- AUC(0-t) ([2]; male, plasma, iv, i.v. 1 mg/kg): 15.3 µM·h
- clearance ([2]; male, plasma, iv, i.v. 1 mg/kg): 2.57 mL/min/kg
- half-life ([2]; male, plasma, iv, i.v. 1 mg/kg): 167 min
- Vd ([2]; male, plasma, iv, i.v. 1 mg/kg, read-out: Vdss): 0.41 L/kg
- AUC(0-t) ([2]; male, plasma, po, p.o. 5 mg/kg): 26.2 µM·h
- Cmax ([2]; male, plasma, po, p.o. 5 mg/kg): 6.18 µM
- Tmax ([2]; male, plasma, po, p.o. 5 mg/kg): 1 h
- F ([2]; p.o. 5 mg/kg vs i.v. 1 mg/kg): 34%
- AUC(0-t) [3, 4]: 1.76 µM·h
- clearance [3, 4]: 44 mL/min/kg
- half-life [3, 4]: 12 min
- Vd ([3]; male, Sprague-Dawley (SD), plasma, iv, i.v. 2 mg/kg, read-out: Vdss): 0.57 L/kg
- AUC(0-t) [3, 5]: 1.45 µM·h
- Cmax [3, 5]: 1030 nM
- Tmax [3, 5]: 15 min
- F ([3]; p.o. 10 mg/kg vs i.v. 2 mg/kg): 17%
